The numbers were not newly measured in patent US20060217788A1, “Method of using laser induced injury to activate topical prodrugs” (priority 2004, published 2006), which cites them from elsewhere.

Where no end group is shown, it is not given here. The star is where a group is joined. Palmitoyl = CCCCCCCCCCCCCCCC(=O)*

One data set concerns fibroblast cultures. Particulars: in vitro.
Data set [1] concerns wrinkle improvement and photo-aging scores. Particulars: 3 ppm, clinical studies.
Data set [2] concerns MMP-1, -2, -3, -7, -9 and -13.

Turning to “KTTKS [pentapeptide, subfragment of the carboxyl-terminal propeptide of type I collagen]”, the “production of matrix components including collagen I, III and fibronectin” value in the data set on fibroblast cultures is on record as “increased production”.
On to “N-Palmitoyl-Lys-Thr-Thr-Lys-Ser (Palmitoyl-KTTKS) [Pal-KTTKS, pentapeptide conjugated to a 16-carbon fatty acid moiety, from Sederma]”, for which, in data set [1], the “irritation or changes in barrier function” value is on record as “without significant irritation or changes in barrier function”; the “wrinkle improvement and reduction of photo-aging scores” value was “comparable to retinoids”.
Consider “PLGLAARK [fairly broad spectrum peptide substrate cleavable by MMPs]”, for which the “cleavage by MMPs” value in data set [2] is “cleavable”.
